This is an account of results in patent publication US20070244007A1, “Cis-Alkoxyspiro-Substituted Tetramic Acid Derivatives” (BAYER CROPSCIENCE AG, priority 2004, published 2007).

Holding throughout (type): in vivo
For assay [1], the system named is Summer barley. Nature of the assay: Container trials with cereals outdoors, post-emergence, Mefenpyr in tank mix. Particulars: 120 g of a.i./ha, without safener. The method, then:
(§1) 1. Herbicidal Post-Emergence Action
(§2) Seeds of monocotyledonous and dicotyledonous weed and crop plants are placed in sandy loam in wood fibre pots or in plastic pots, covered with soil and cultivated in a greenhouse, during the vegetation period also outdoors outside of the greenhouse, under good growth conditions. 2-3 weeks after sowing, the test plants are treated at the one- to three-leaf stage. The test compounds, formulated as wettable powders (WP) or emulsifiable concentrates (EC) are, in various dosages with a water application rate of 300 l/ha (converted), with wetting agent (0.2 to 0.3%) added, sprayed onto the plants and the surface of the soil. 3-4 weeks after the treatment of the test plants, the effect of the preparations is rated visually in comparison to untreated controls (herbicidal effect in per cent (%): 100% effect=the plants have died, 0% effect=like control plants).
(§3) If it is additionally to be tested whether safeners can improve the plant compatibility of test substances in the case of crop plants, the following options are used for applying the safener: • seeds of the crop plants are, before sowing, dressed with the safener substance (the amount of safener is stated in per cent, based on the weight of the seed) • before the application of the test substances, the crop plants are sprayed with the safener at a certain application rate per hectar (usually 1 day before the application of the test substances) • the safener is applied together with the test substance as a tank mix (the amount of safener is stated in g/ha or as a ratio, based on the herbicide).
(§4) By comparing the effect of test substances on crop plants with or without safener treatment, it is possible to assess the effect of the safener substance.
(§5) Container Trials with Cereals Outdoors (Outside the Greenhouse/“Bird Cage”) Mefenpyr in Tank Mix

The subject of assay [2] is Summer wheat. The assay is described as above. The following applies: 120 g of a.i./ha, without safener. As for the experimental part: as §1, §2, §3, §4, §5
Assay [3] relates to Summer barley. The assay can be described thus: Container trials with cereals in the greenhouse, post-emergence, Mefenpyr applied 1 day prior to herbicide. The following applies: 50 g of a.i./ha, without safener. As for the experimental part: as §1
as §2, with “plants). […]” for “plants).”

The subject of assay [4] is Meloidogyne incognita. The assay can be described thus: Meloidogyne Test (nematicidal action, gall formation on lettuce roots). Particulars: 20 ppm active compound; 100% = no galls. As for the experimental part:
To produce a suitable preparation of active compound, 1 part by weight of active compound is mixed with the stated amounts of solvent and emulsifier, and the concentrate is diluted with water to the desired concentration.
Vessels are filled with sand, solution of active compound, Meloidogyne incognita egg/larvae suspension and lettuce seeds. The lettuce seeds germinate and the plants develop. On the roots, the galls develop.
After the desired period of time, the nematicidal action is determined in % by the formation of galls. 100% means that no galls have been found; 0% means that the number of galls on the treated plants corresponds to that of the untreated control.

Assay [5] concerns green peach aphid (Myzus persicae). The assay can be described thus: Myzus Test (spray treatment). The following applies: 100 g/ha, Chinese cabbage discs. As for the experimental part:
(§6) To produce a suitable preparation of active compound, 1 part by weight of active compound is mixed with the stated amounts of solvents and emulsifier, and the concentrate is diluted with emulsifier-containing water to the desired concentration.
Discs of Chinese cabbage (Brassica pekinensis) which are infested by all stages of the green peach aphid (Myzus persicae) are sprayed with a preparation of active compound of the desired concentration.
After the desired period of time, the activity in % is determined. 100% means that all aphids have been killed; 0% means that none of the aphids have been killed.

For assay [6], the system named is larvae of the mustard beetle (Phaedon cochleariae). Nature of the assay: Phaedon Test (spray treatment). The following applies: 100 g/ha, Chinese cabbage discs. As for the experimental part: [[[…]]] To produce a suitable preparation of active compound, 1 part by weight of active compound is mixed with the stated amounts of solvents and emulsifier, and the concentrate is diluted with emulsifier-containing water to the desired concentration. Discs of Chinese cabbage (Brassica pekinensis) are sprayed with a preparation of active compound of the desired concentration and, after they have dried, populated with larvae of the mustard beetle (Phaedon cochleariae).

For assay [7], the system named is greenhouse red spider mite (Tetranychus urticae). The assay can be described thus: Tetranychus Test (OP-resistant/spray treatment). The following applies: 100 g/ha; bean leaf discs, spray, OP-resistant. The method, then:
as §6
Discs of bean leaves (Phaseolus vulgaris) which are infested by all stages of the greenhouse red spider mite (Tetranychus urticae) are sprayed with a preparation of active compound of the desired concentration.
After the desired period of time, the activity in % is determined. 100% means that all spider mites have been killed; 0% means that none of the spider mites have been killed.

The subject of assay [8] is Agropyron. The assay can be described thus: Herbicidal pre-emergence action, greenhouse. Particulars: 320 g a.i./ha, 3 weeks. The text has this:
(§7) 1. Herbicidal Pre-Emergence Action
(§8) Seeds of monocotyledonous and dicotyledonous weed and crop plants are placed into sandy loam in wood fibre pots and covered with soil. The test compounds, formulated in the form of wettable powders (WP), are then, in various dosages as aqueous suspension with a water application rate of 600 l/ha (converted), with 0.2% of wetting agent added, applied to the surface of the covering soil.
(§9) After the treatment, the pots are placed in a greenhouse and kept under good growth conditions for the test plants. The visual assessment of the emergence damage on the test plants is carried out after a trial period of 3 weeks by comparison with untreated plants (herbicidal effect in per cent (%): 100% effect=the plants have died, 0% effect=like control plants).

Assay [9] has as its system Alopecurus. Nature of the assay: Herbicidal pre-emergence action, greenhouse. Particulars: 320 g a.i./ha, 3 weeks.
Excerpt: as §7, §8, §9

Assay [10] deals with Avena. Nature of the assay: Herbicidal pre-emergence action, greenhouse. Particulars: 320 g a.i./ha, 3 weeks.
Excerpt: as §7, §8, §9

Assay [11] concerns Lolium. Nature of the assay: Herbicidal pre-emergence action, greenhouse. The following applies: 320 g a.i./ha, 3 weeks.
Excerpt: as §7, §8, §9

The subject of assay [12] is Setaria. Nature of the assay: Herbicidal pre-emergence action, greenhouse. The following applies: 320 g a.i./ha, 3 weeks.
Excerpt: as §7, §8, §9

For assay [13], the system named is Sugar-beets. Nature of the assay: Herbicidal pre-emergence action, greenhouse. The following applies: 320 g a.i./ha, 3 weeks.
Excerpt: as §7, §8, §9

In assay [14] the test system is Agropyron. Nature of the assay: Herbicidal post-emergence action, greenhouse. The following applies: 320 g a.i./ha, about 3 weeks. The method, then:
(§10) 2. Herbicidal Post-Emergence Action
(§11) Seeds of monocotyledonous and dicotyledonous weed and crop plants are placed into sandy loam in wood fibre pots, covered with soil and cultivated in a greenhouse under good growth conditions. 2-3 weeks after sowing, the test plants are treated at the one-leaf stage. The test compounds, formulated as wettable powders (WP), are, in various dosages with a water application rate of 600 l/ha (converted), with 0.2% of wetting agent added, sprayed onto the green parts of the plants. After the test plants were kept in the greenhouse under optimum growth conditions for about 3 weeks, the effect of the preparations is rated visually in comparison to untreated controls (herbicidal effect in per cent (%): 100% effect=the plants have died, 0% effect=like control plants).

For assay [15], the system named is Alopecurus. Nature of the assay: Herbicidal post-emergence action, greenhouse. Particulars: 320 g a.i./ha, about 3 weeks. As for the experimental part:
as §10, §11

The subject of assay [16] is Avena. Nature of the assay: Herbicidal post-emergence action, greenhouse. Particulars: 320 g a.i./ha, about 3 weeks. As for the experimental part:
as §10, §11

Assay [17] concerns Lolium. Nature of the assay: Herbicidal post-emergence action, greenhouse. The following applies: 320 g a.i./ha, about 3 weeks. As for the experimental part: as §10, §11
Assay [18] deals with Setaria. The assay can be described thus: Herbicidal post-emergence action, greenhouse. Particulars: 320 g a.i./ha, about 3 weeks. The method, then:
as §10, §11

The test system of assay [19] is Sugar-beets. Nature of the assay: Herbicidal post-emergence action, greenhouse. Particulars: 320 g a.i./ha, about 3 weeks. The method, then:
as §10, §11

With `CCc1cc(Br)cc(C)c1C1=C(O)[C@]2(CC[C@H](OC)CC2)NC1=O` [Ex. I-a-1], the “Summer barley observed (%)” value in assay [1] is recorded as 35%. Also, the “Summer wheat observed (%)” value in assay [2] was 30%.
As for `CCc1cc(Br)cc(CC)c1C1=C(OC(=O)COC)[C@]2(CC[C@H](OC)CC2)NC1=O` [Ex. I-b-1], in assay [3], the “Summer barley observed (%)” value stood at 50%.
For `CCOC(=O)OC1=C(c2c(C)cc(Br)cc2CC)C(=O)N[C@]12CC[C@@H](OC)CC2` [Ex. I-c-1], the “Effect in % after 14d” value in assay [4] is on record as 90%. Moreover, the “Kill rate in % after 5d” value in [5] stood at 90%; in assay [7] it was 70%. Moreover, in assay [6], the “Kill rate in % after 7d” value was 83%. Besides, the “herbicidal effect, Agropyron” value in assay [8] and in assay [14] was 100% each time. The “herbicidal effect, Alopecurus” value in assay [9] and in assay [15] was 100% in each case. The “herbicidal effect, Avena” value is given as 97% in [10] and 100% in [16]. The “herbicidal effect, Lolium” value in assay [11] and in [17] was 100% throughout. Also, the “herbicidal effect, Setaria” value in assay [12] and in assay [18] was 100% in each case. For the same compound, the “herbicidal effect, Sugar-beets” value in [13] and in [19] was 0% each time. The “Summer barley observed (%)” value in assay [1] is given as 35%. In addition, the “Summer wheat observed (%)” value in assay [2] is listed as 20%.
